Assay results reported in BigSolDB 2.1.

CN1COCN(Cc2cnc(Cl)s2)C1=N[N+](=O)[O-]
solubility (mole fraction)
Details	278.15 K	283.15 K	288.15 K	293.15 K	298.15 K	303.15 K	308.15 K	313.15 K	318.15 K	323.15 K
in DMF	0.059	0.0658	0.0738	0.0816	0.0892	0.0985	0.11	0.123	0.137	0.152
in NMP	0.0818	0.0882	0.0952	0.102	0.111	0.119	0.128	0.138	0.149	0.161
in acetone	0.00632	0.00763	0.00888	0.0101	0.0121	0.014	0.0164	0.0194	0.023	0.0268
in dichloromethane	0.0126	0.0152	0.0174	0.0197	0.0222	0.0249	0.0277	0.0306	–	–
in ethyl acetate	0.00099	0.00125	0.00155	0.00183	0.0022	0.00257	0.00295	0.00339	0.00384	0.00429
in methyl acetate	0.00283	0.00331	0.00382	0.00446	0.00511	0.00597	0.00708	0.00825	0.0096	0.0114
